{
  "source": "patent US8642094B2",
  "about": "“Synergistic pharmaceutical composition, method of making same and use of same” (Afexa Life Sciences Inc., priority 2008, dated 2014)",
  "key": {"[1]": {"molecular_target": "acyl-CoA: cholesterol acyltransferase (ACAT)", "settings": "cited from earlier work"}, "[2]": {"test_system": "secretion of apo-B from HepG2 cells", "experiment": "Apo-B secretion from HepG2 cells", "assay_type": "cell-based, human", "settings": "for nature of interaction with ethanol extract of HL: non-linear blending curves, combined total doses 30-250 ug/ml, FIGS. 9-11, 14-35; for nature of interaction with berberine (BBR): non-linear blending, combined total dose 50 ug/ml, FIGS. 36-40", "protocol": "In the Examples to follow, Apo-B secretion experiments were carried out on HepG2 cells. These cells were obtained from the American Type Culture Collection (cat #: ATCC HB-8065). HepG2, a human hepatoblastoma-derived cell line, is one of the most commonly used models to study lipoprotein uptake and metabolism in intact human liver. These cells secrete most of the plasma proteins secreted from human liver cells including apolipoprotein-B [38]. In addition, most of the enzymes involved in intra- and extracellular cholesterol metabolism including LCAT, ACAT, HMG-CoA reductase and Cholesterol 7-α-hydroxylase are expressed in these cells.\nThe effects of HL, KDC and hawthorn extracts, when used in isolation as well as in combination, on the secretion of apo-B from human hepatoma cells, Hep-G2 was determined. Water extracts of Coptis chinesis (Huanglian) and Ku Ding Cha (Ilex kudingcha) were developed and tested; results are indicated in FIGS. 1 and 2, respectively. Ethanolic extracts of Coptis chinesis (Huanglian) and ethyl acetate extracts of Ku Ding Cha (Ilex kudingcha) were also developed and hawthorn extract was used for these experiments shown in FIGS. 3-12.\nAdditional experiments were subsequently carried out to confirm the synergism between the HL and KDC extracts. Three commonly used approaches including non-linear blending, isobologram and combination index were utilized to determine this interaction.\nDetermination of a drugs combination index (CI) provides quantitative information of the nature of drug interaction. It is calculated through the following equation: CI=(CA,X/ICX,A)+(CB,X/ICX,B) CA,X and CB,X, are the concentrations of drug A and drug B used in the combination to achieve x % drug effect. ICX,A and ICX,B are the concentrations for single agents to achieve the same effect. A CI of less than, equal to, and more than 1 indicates synergy, additivity, and antagonism, respectively."}, "squalene synthase": {"molecular_target": "T1, squalene synthase (Homo sapiens, UniProt P37268)", "T1 sequence (P37268 1-417)": "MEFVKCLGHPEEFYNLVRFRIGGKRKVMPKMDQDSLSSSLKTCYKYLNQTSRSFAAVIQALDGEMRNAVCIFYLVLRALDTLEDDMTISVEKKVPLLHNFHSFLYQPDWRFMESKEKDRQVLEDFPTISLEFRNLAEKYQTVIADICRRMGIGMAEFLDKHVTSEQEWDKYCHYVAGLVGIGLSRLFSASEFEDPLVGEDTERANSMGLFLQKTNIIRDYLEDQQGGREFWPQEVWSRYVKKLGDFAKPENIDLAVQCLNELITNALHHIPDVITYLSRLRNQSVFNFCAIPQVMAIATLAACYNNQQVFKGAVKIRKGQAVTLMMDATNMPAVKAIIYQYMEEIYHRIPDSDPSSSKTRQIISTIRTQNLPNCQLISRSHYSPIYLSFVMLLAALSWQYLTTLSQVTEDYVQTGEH", "settings": "cited from earlier work"}, "[3]": {"molecular_target": "nucleoside triphosphate hydrolase (NTPase)", "settings": "cited from earlier work"}, "L929 cells": {"test_system": "L929 cells", "settings": "cited from earlier work"}, "Hep G2 cells": {"test_system": "Hep G2 cells", "settings": "cited from earlier work"}, "[4]": {"settings": "oral, 100 mg/day for 2 weeks; cited from earlier work"}, "CYP3A4": {"molecular_target": "T2, CYP3A4 (Homo sapiens, UniProt P08684)", "T2 construct": "incubation of human liver microsomes with BBR; from tissue; host or cells: human liver microsomes", "T2 sequence (P08684 whole entry)": "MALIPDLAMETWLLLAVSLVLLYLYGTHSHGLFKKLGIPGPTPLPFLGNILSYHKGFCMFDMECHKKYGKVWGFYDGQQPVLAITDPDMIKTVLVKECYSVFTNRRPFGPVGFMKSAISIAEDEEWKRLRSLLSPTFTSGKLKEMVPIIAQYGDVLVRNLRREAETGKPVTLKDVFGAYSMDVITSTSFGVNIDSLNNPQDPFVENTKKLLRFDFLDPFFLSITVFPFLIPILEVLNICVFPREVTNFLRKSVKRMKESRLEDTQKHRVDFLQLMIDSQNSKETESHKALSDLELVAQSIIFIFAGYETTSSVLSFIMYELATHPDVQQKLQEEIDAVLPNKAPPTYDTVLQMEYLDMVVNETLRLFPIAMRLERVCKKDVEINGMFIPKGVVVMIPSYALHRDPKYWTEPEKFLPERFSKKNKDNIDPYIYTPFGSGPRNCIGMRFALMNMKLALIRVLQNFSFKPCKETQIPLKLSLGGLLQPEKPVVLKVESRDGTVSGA", "settings": "human liver microsomes, 20 μM; cited from earlier work"}, "3T3-L1 adipocytes": {"test_system": "3T3-L1 adipocytes", "settings": "cited from earlier work"}, "CYP2D6": {"molecular_target": "T3, CYP2D6 (Homo sapiens, UniProt P10635)", "T3 construct": "incubation of human liver microsomes with BBR; from tissue; host or cells: human liver microsomes", "T3 sequence (P10635 whole entry)": "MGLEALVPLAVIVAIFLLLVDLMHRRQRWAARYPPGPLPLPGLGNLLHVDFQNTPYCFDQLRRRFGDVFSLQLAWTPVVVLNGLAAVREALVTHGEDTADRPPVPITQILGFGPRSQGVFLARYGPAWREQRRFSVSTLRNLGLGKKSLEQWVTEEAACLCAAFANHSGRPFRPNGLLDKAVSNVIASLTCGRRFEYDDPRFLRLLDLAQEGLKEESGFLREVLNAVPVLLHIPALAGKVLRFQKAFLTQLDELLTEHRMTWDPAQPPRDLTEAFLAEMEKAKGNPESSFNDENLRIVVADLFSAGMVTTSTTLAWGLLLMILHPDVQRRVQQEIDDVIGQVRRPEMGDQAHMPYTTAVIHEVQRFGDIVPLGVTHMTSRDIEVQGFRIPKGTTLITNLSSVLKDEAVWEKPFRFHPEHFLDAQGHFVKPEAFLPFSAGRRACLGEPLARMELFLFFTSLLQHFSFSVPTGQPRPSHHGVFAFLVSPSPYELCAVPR", "settings": "human liver microsomes, 20 μM; cited from earlier work"}, "[5]": {"settings": "1 g/day for 3 months; cited from earlier work"}, "CYP2E1": {"molecular_target": "T4, CYP2E1 (Homo sapiens, UniProt P05181)", "T4 construct": "incubation of human liver microsomes with BBR; from tissue; host or cells: human liver microsomes", "T4 sequence (P05181 whole entry)": "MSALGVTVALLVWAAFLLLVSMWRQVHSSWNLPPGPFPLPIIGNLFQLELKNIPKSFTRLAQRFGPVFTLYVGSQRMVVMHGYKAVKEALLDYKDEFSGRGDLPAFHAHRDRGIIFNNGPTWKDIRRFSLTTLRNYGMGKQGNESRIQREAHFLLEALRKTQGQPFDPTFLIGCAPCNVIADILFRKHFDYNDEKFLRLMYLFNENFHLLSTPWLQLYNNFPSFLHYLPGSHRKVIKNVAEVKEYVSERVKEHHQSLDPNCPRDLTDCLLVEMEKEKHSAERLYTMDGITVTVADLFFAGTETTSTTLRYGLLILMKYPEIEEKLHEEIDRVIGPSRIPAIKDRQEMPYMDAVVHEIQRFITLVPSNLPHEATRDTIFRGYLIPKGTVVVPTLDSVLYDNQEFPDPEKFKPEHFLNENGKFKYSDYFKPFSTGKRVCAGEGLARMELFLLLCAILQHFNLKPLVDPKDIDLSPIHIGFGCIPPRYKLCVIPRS", "settings": "human liver microsomes, 20 μM; cited from earlier work"}, "LDL receptors": {"test_system": "LDL receptors", "settings": "Hep G2 cells; cited from earlier work"}, "mice": {"test_system": "mice", "settings": "mouse, in vivo; cited from earlier work"}},
  "data": [
    {"molecule": "C=C(C)[C@@H]1CC[C@]2(C)CC[C@]3(C)[C@H](CC[C@@H]4[C@@]5(C)CC[C@H](O)C(C)(C)[C@@H]5CC[C@]43C)[C@@H]12", "note": "[Lupeol, 3β-Hydroxy-20(29)-lupene]", "values": [
      {"measurement": "IC50", "setting": "[1]", "value": 48, "unit": "µM"},
      {"measurement": "nature of interaction with ethanol extract of HL", "setting": "[2]", "value": "interacting with HL"},
      {"measurement": "nature of interaction with berberine (BBR)", "setting": "[2]", "value": "synergism"}
    ]},
    {"molecule": "O=C(/C=C/c1ccc(O)c(O)c1)O[C@@H]1C[C@](O)(C(=O)O)C[C@@H](O)[C@H]1O", "note": "[Chlorogenic acid]", "values": [
      {"measurement": "IC50", "setting": "squalene synthase", "value": 0.1, "unit": "µM"},
      {"measurement": "nature of interaction with ethanol extract of HL", "setting": "[2]", "value": "synergism"},
      {"measurement": "nature of interaction with berberine (BBR)", "setting": "[2]", "value": "synergism"}
    ]},
    {"molecule": "C=C(C)[C@@H]1CC[C@]2(CO)CC[C@]3(C)[C@H](CC[C@@H]4[C@@]5(C)CC[C@H](O)C(C)(C)[C@@H]5CC[C@]43C)[C@@H]12", "note": "[betulin, lup-20[29]-ene-3β,28-diol]", "values": [
      {"measurement": "IC50", "setting": "[1]", "value": 83, "unit": "µM"},
      {"measurement": "nature of interaction with ethanol extract of HL", "setting": "[2]", "value": "interacting with HL"},
      {"measurement": "nature of interaction with berberine (BBR)", "setting": "[2]", "value": "synergism"}
    ]},
    {"molecule": "C[C@H]1[C@H](C)CC[C@]2(C(=O)O)CC[C@]3(C)C(=CC[C@@H]4[C@@]5(C)CC[C@H](O)C(C)(C)[C@@H]5CC[C@]43C)[C@H]12", "note": "[ursolic acid, 3β-Hydroxy-12-ursen-28-ic acid]", "values": [
      {"measurement": "IC50", "setting": "[3]", "value": 0.6, "unit": "µM"},
      {"measurement": "IC50", "setting": "[1]", "value": 58.8, "unit": "µM"},
      {"measurement": "nature of interaction with ethanol extract of HL", "setting": "[2]", "value": "interacting with HL"},
      {"measurement": "nature of interaction with berberine (BBR)", "setting": "[2]", "value": "synergism"}
    ]},
    {"molecule": "COc1cc2c(cc1OC)-c1cc3ccc(OC)c(OC)c3c[n+]1CC2", "note": "[Palmitine chloride, palmitine chloride]", "values": [
      {"measurement": "nature of interaction with berberine (BBR)", "setting": "[2]", "value": "interact synergistically"}
    ]},
    {"molecule": "Lipedoside B-III", "values": [
      {"measurement": "IC50", "setting": "[1]", "value": 269, "unit": "µM"}
    ]},
    {"molecule": "COc1ccc2cc3[n+](cc2c1OC)CCc1cc2c(cc1-3)OCO2", "note": "[berberine]", "values": [
      {"measurement": "dose inducing cytotoxicity", "setting": "L929 cells", "value": "greater than 40 μg/ml"},
      {"measurement": "synthesis of cholesterol and triglyceride in the cells", "setting": "Hep G2 cells", "value": "inhibit the synthesis of cholesterol and triglyceride"},
      {"measurement": "reduction of serum LDL-cholesterol levels", "setting": "[4]", "value": "up to 30%"},
      {"measurement": "reduction of serum total cholesterol levels", "setting": "[4]", "value": "up to 30%"},
      {"measurement": "CYP3A4 activity", "setting": "CYP3A4", "value": "decrease the activities"},
      {"measurement": "differentiation of 3T3-L1 adipocytes", "setting": "3T3-L1 adipocytes", "value": "inhibit differentiation"},
      {"measurement": "CYP2D6 activity", "setting": "CYP2D6", "value": "decrease the activities"},
      {"measurement": "reduction of LDL-cholesterol", "setting": "[5]", "value": 25, "unit": "%"},
      {"measurement": "reduction of serum cholesterol concentrations", "setting": "[5]", "value": 29, "unit": "%"},
      {"measurement": "reduction of triglycerides", "setting": "[5]", "value": 35, "unit": "%"},
      {"measurement": "CYP2E1 activity", "setting": "CYP2E1", "value": "decrease the activities"},
      {"measurement": "expression of LDL receptors", "setting": "LDL receptors", "value": "increases the expression of LDL receptors"},
      {"measurement": "lethal dose", "setting": "mice", "value": "exceeding 15 mg/Kg"}
    ]}
  ]
}
